≈ marks a conversion by molar mass, not a printed value. Read-outs that look alike come from different tables or passages of the source.
Tests used:
Format in all cases: physicochemical
[1] = Characterization of the resulting solid form (hygroscopicity)
[2] = Aqueous solubility determination via HPLC calibration curve
Description: The solubility determination was made as follows. Each salt suspension was made by adding 50-100 mg of material into a minimum amount of water (0.1-0.2 mL to start). Based on solubility, additional material was added to obtain a salt suspension. The suspension was then filtered through a 0.25 μm filter and the filtrate was further diluted with water and the salt solution was analysed by HPLC. The concentration of the salt solution injected was calculated with the linear equation y=mx+c derived from the calibration curves, with Y referring to the HPLC response obtained for the salt solution injected.

[3] = Competitive slurries (cross-seeding) of free base Forms A and B, solids analysed by XRPD; details: for XRPD form after competitive slurry: Forms A and B equal amounts, 72 h
Description: This set of experiments was performed using various solvents and solvent combinations. Cross-seeding experiments were performed over a range of temperatures to help define the relationship between Forms A and B.
Procedure: Twenty-one cross-seeding experiments were performed by adding equal amounts of Forms A and B (weight/weight, total of 25 mg). The mixture was slurried in the given solvent/system (ca. 5 vol. 125 μl) at room temperature, then matured at a specific temperature (5° C., 25° C. or 50° C.) for 72 h. The solids were filtered, air dried and analysed by XRPD. After two days, samples 3 and 15 were completely dry and additional portions of their corresponding solvents were added, (250 μl was added to sample 3 and 248.6 μl was added to sample 15). Solids obtained were characterised by XRPD.

[4] = water, thermodynamic from solid, aqueous (water), filtered suspension, HPLC, read-out: Solubility
[5] = aqueous (water), filtered suspension, HPLC

## CC(C)(O)c1nc2ccc(Cl)cc2cc1N.CS(=O)(=O)O [Compound 1]
[1]; Form B
  Hygroscopicity: slightly hygroscopic
[2]; [4]
  solubility: > 1500 mg/mL
[2]; water, comparison in words
  Aqueous solubility compared with the other compounds: highest solubility

## CC(C)(O)c1nc2ccc(Cl)cc2cc1N.O=S(=O)(O)c1ccccc1 [Compound 2]
[1]; Form A
  Hygroscopicity: slightly hygroscopic

## CC(C)(O)c1nc2ccc(Cl)cc2cc1N.O=S(=O)(O)O [Compound 3]
[1]; Form A
  Hygroscopicity: slightly hygroscopic
[2]; thermodynamic from solid, aqueous (water), filtered suspension, HPLC, read-out: Solubility
  solubility: 421 mg/mL

## CC(C)(O)c1nc2ccc(Cl)cc2cc1N.Cc1ccc(S(=O)(=O)O)cc1 [Compound 4]
[2]; [4]
  solubility: 11 mg/mL

## CC(C)(O)c1nc2ccc(Cl)cc2cc1N [Compound 5]
[1]; Form A
  Hygroscopicity: slightly hygroscopic
[2]; [5]
  solubility: 73 mg/mL (≈ 308 mM)

## CC(C)(O)c1nc2ccc(Cl)cc2cc1N.O=C(O)C(=O)O [Compound 6]
[2]; water, thermodynamic from solid, Solubility
  solubility: 15.6 mg/mL

## CC(C)(O)c1nc2ccc(Cl)cc2cc1N.O=P(O)(O)O [Compound 7]
[1]; Form A
  Hygroscopicity: slightly hygroscopic
[2]; [4]
  solubility: > 500 mg/mL

## CC(C)(O)c1nc2ccc(Cl)cc2cc1N [Compound 8]
[2]; [5]
  solubility: 35 mg/mL (≈ 148 mM)

## CC(C)(O)c1nc2ccc(Cl)cc2cc1N [Compound A]
[3]
  Transition temperature between Form A and Form B: below 50 °C
[3]; Acetone:H2O (10%), 5° C.
  XRPD form after competitive slurry: Form B
[3]; Acetone:H2O (10%), 25° C.
  XRPD form after competitive slurry: Form B
[3]; Acetone:H2O (10%), 50° C.
  XRPD form after competitive slurry: Forms A & B
[3]; Cyclohexane, 5° C.
  XRPD form after competitive slurry: Forms A & B
[3]; Cyclohexane, 25° C.
  XRPD form after competitive slurry: Form B
[3]; Cyclohexane, 50° C.
  XRPD form after competitive slurry: Form B
[3]; EtOAc:Heptane, 5° C.
  XRPD form after competitive slurry: Form B
[3]; EtOAc:Heptane, 25° C.
  XRPD form after competitive slurry: Form B
[3]; EtOAc:Heptane, 50° C.
  XRPD form after competitive slurry: Form B
[3]; Heptane, 5° C.
  XRPD form after competitive slurry: Form B
[3]; Heptane, 25° C.
  XRPD form after competitive slurry: Form B
[3]; Heptane, 50° C., additional solvent added
  XRPD form after competitive slurry: Form B
[3]; Toluene, 5° C.
  XRPD form after competitive slurry: Form B
[3]; Toluene, 25° C.
  XRPD form after competitive slurry: Form B
[3]; Toluene, 50° C.
  XRPD form after competitive slurry: Form A
[3]; Toluene:Cyclohexane, 5° C.
  XRPD form after competitive slurry: Form B
[3]; Toluene:Cyclohexane, 25° C.
  XRPD form after competitive slurry: Form B
[3]; Toluene:Cyclohexane, 50° C.
  XRPD form after competitive slurry: Form B
[3]; Toluene:Heptane, 5° C.
  XRPD form after competitive slurry: Form B
[3]; Toluene:Heptane, 25° C.
  XRPD form after competitive slurry: Form B
[3]; Toluene:Heptane, 50° C., additional solvent added
  XRPD form after competitive slurry: Form B
[3]; two anhydrous forms (Form A & Form B), under the investigated conditions
  Most stable form in competitive slurries: Form B
[1]; Form A
  Hygroscopicity: non-hygroscopic
[1]; Form B
  Hygroscopicity: slightly hygroscopic
[2]; [5]
  solubility: <0.1 mg/mL
